According to patent publication US20260130885A1, “ANTIMICROBIAL COMPOSITIONS, PHARMACEUTICAL COMPOSITIONS AND USE THEREOF” (priority 2022, published 2026):
In brackets after ≈: the same amount, converted by molar mass. Like-named read-outs stand apart in the source and are kept apart here.

Experiments:
MRSA USA300 = experiment: Antibacterial activity assay (MIC by broth microdilution, MBC by subculture); assay type: cell-based, Staphylococcus aureus; conditions: for combination effect: MIC
Procedure: (§1) The antimicrobial activity was based on MIC and MBC; MIC is the minimum inhibitory concentration and MBC is the minimum bactericidal concentration. The MIC of individual test agents against MRSA USA300 strains was determined using the broth microdilution method according to CLSI guidelines. Briefly, overnight bacterial cultures in LB medium were diluted 1:50 in fresh LB medium and incubated at 37° C. until reaching an OD600 of 0.5 to 0.6. Bacterial suspensions were diluted to a final concentration of 5×10^5 cfu/mL in fresh CAMHB and then exposed to each test agent at increasing doses in triplicate in 96-well plates for 24 hours at 37° C. The MIC of each agent was defined as the lowest concentration without visible bacterial growth. […] The lowest broth dilution that had no viable bacteria was considered the MBC.
Then, the combination effect was measured by calculating their corresponding fractional inhibitory concentration index (FICI) with the equation ΣFIC (FICi)=FICA+FICB=(CombA/MICA)+(CombB/MICB), where MICA and MICB are the MICs of drugs A and B alone, respectively, and CombA and CombB are the concentrations of drugs A and B in combination, respectively. […] was defined as an FICI≤0.5, no interaction was defined as an FICI>0.5-4.0, and antagonism was defined as an FICI>4.

S. aureus ATCC29213 = experiment: Antibacterial activity assay (MIC, broth microdilution); assay type: cell-based, Staphylococcus aureus; conditions: for MIC: Staphylococcus aureus; for combination effect: MIC, +8 mg/L DHA
S. aureus NCTC8325 = experiment: as above; assay type: cell-based, Staphylococcus aureus; conditions: for MIC: Staphylococcus aureus; for combination effect: MIC, +8 mg/L DHA
MRSA ATCC33591 = experiment: as above; assay type: cell-based, Staphylococcus aureus; conditions: for MIC: Staphylococcus aureus; for combination effect: MIC
MRSA ATCC33592 = experiment: as above; assay type: cell-based, Staphylococcus aureus; conditions: for MIC: Staphylococcus aureus; for combination effect: MIC
MRSA ATCC43300 = experiment: as above; assay type: cell-based, Staphylococcus aureus; conditions: for MIC: Staphylococcus aureus; for combination effect: MIC
MRSA ATCC49476 = experiment: as above; assay type: cell-based, Staphylococcus aureus; conditions: for MIC: Staphylococcus aureus; for combination effect: MIC
MRSA SCCmec VT = experiment: as above; assay type: cell-based, Staphylococcus aureus; conditions: for MIC: Staphylococcus aureus, MRSA; for combination effect: MIC
VRSA SJC1200 = experiment: as above; assay type: cell-based, Staphylococcus aureus; conditions: for MIC: Staphylococcus aureus, VRSA; for combination effect: MIC
S. aureus DAP-NS = experiment: as above; assay type: cell-based, Staphylococcus aureus; conditions: for MIC: Staphylococcus aureus; for combination effect: MIC
[1] = tested on: antibiotic-resistant Staphylococcus aureus; experiment: MIC against all strains of Table 4; assay type: cell-based; conditions: agent alone, all the bacterial strains under the examination
Procedure: as §1
Then, the combination effect was measured by calculating their corresponding fractional inhibitory concentration index (FICI) with the equation ΣFIC (FICi)=FICA+FICB=(CombA/MICA)+(CombB/MICB), where MICA and MICB are the MICs of drugs A and B alone, respectively, and CombA and CombB are the concentrations of drugs A and B in combination, respectively. […]
The antibacterial activity of the SC5005-DHA composition against a series of antibiotic-resistant Staphylococcus aureus was analyzed, and the results are shown in Table 4.

[2] = tested on: MRSA USA300 persister cells; experiment: Persister killing assay; assay type: cell-based, Staphylococcus aureus; conditions: 16×MIC, 16 mg/L; FIG. 1
Procedure: (§2) The number of viable bacteria in broth after each exposure period was enumerated by a cfu assay and expressed as cfu/mL; the data shown are the mean±SD (standard deviation) of independent experiments. […] The number of viable bacteria in the broth after each exposure period was calculated by a cfu assay (cfu/mL); the data are shown as the mean±SD of three independent experiments (n=3 for each group). Since the standard deviation of each point is very small, the error line is not shown in each graph. The horizontal dashed line in the upper left graph and the upper right graph represents […] of the bacterial cells killed. In addition, the blank controls in FIG. 1 are shown as filled diamonds.
(§3) Bacteria were collected by centrifugation at 4000×g for 10 min at 4° C., washed with ice-cold PBS, and suspended in PBS with test agents. Controls received DMSO and ethanol vehicles at concentrations equal to those for drug-treated bacteria. At the designated times, the number of viable bacteria was assessed by serial dilution of a 100 μL aliquot bacterial suspension in PBS and then spread onto LB agar plates. After incubation at 37° C. for 18-24 hours, the number of colonies was counted and expressed as cfu/mL.

[3] = tested on: S. aureus NCTC8325 persister cells; experiment: Persister killing assay; assay type: cell-based, Staphylococcus aureus; conditions: 16×MIC, 16 mg/L; FIG. 1
Procedure: as §2, §3

[4] = +8 mg/L DHA, MRSA USA300 (Table 4)
[5] = Staphylococcus aureus, amide compound alone, read-out: MBC
[6] = Staphylococcus aureus, amide compound alone, read-out: MIC
[7] = agent alone, MRSA USA300 (Table 4)

Structure (SMILES)	MIC (S. aureus ATCC29213; ATCC29213, agent alone) [µg/mL]	MIC (S. aureus NCTC8325; NCTC8325, agent alone) [µg/mL]	MIC (MRSA ATCC33591; agent alone) [µg/mL]	MIC (MRSA ATCC33592; agent alone) [µg/mL]	MIC (MRSA ATCC43300; agent alone) [µg/mL]	MIC (MRSA ATCC49476; agent alone) [µg/mL]	MIC (MRSA SCCmec VT; agent alone) [µg/mL]	MIC (VRSA SJC1200; agent alone) [µg/mL]	MIC (S. aureus DAP-NS; agent alone) [µg/mL]	MBC (MRSA USA300; +8 mg/L DHA) [µg/mL]	MIC (MRSA USA300; +8 mg/L DHA) [µg/mL]	MIC (MRSA USA300; [4]) [µg/mL]	combination effect (MRSA USA300; [4])	MBC (MRSA USA300; [5]) [µg/mL]	MIC (MRSA USA300; [6]) [µg/mL]	MIC (MRSA USA300; [7]) [µg/mL]	combination effect (S. aureus ATCC29213)	MIC (S. aureus ATCC29213; ATCC29213, +8 mg/L DHA) [µg/mL]	combination effect (S. aureus NCTC8325)	MIC (S. aureus NCTC8325; NCTC8325, +8 mg/L DHA) [µg/mL]	other results
CC/C=C\C/C=C\C/C=C\C/C=C\C/C=C\C/C=C\CCC(=O)O [DHA, docosahexaenoic acid]	1020 (≈ 3120 µM)	1020 (≈ 3120 µM)	1020 (≈ 3120 µM)	1020 (≈ 3120 µM)	1020 (≈ 3120 µM)	1020 (≈ 3120 µM)	1020 (≈ 3120 µM)	1020 (≈ 3120 µM)	1020 (≈ 3120 µM)												MIC (MRSA USA300; Staphylococcus aureus, agent alone, MRSA USA300 (Table 4), read-out: MIC): 1020 µg/mL; MBC (MRSA USA300; Staphylococcus aureus, fatty acid alone, read-out: MBC fatty acid): 1020 µg/mL; MIC (MRSA USA300; Staphylococcus aureus, fatty acid alone, read-out: MIC fatty acid): 1020 µg/mL; MIC [1]: 1020 µg/mL
O=C(Nc1ccc2c(c1)OC(F)(F)O2)Nc1ccc(Cl)c(C(F)(F)F)c1 [PK150]	0.0625 (≈ 0.158 µM)	0.0625 (≈ 0.158 µM)	0.0625 (≈ 0.158 µM)	0.0625 (≈ 0.158 µM)	0.0625 (≈ 0.158 µM)	0.0625 (≈ 0.158 µM)	0.125 (≈ 0.317 µM)	0.125 (≈ 0.317 µM)	0.0625 (≈ 0.158 µM)	0.00098	0.00049	0.00049	(Syn) (Synergy (Syn) was defined as an FICI≤0.5)	2	0.0625	0.0625	(Syn) (Synergy (Syn) was defined as an FICI≤0.5)	0.0039 (≈ 0.00988 µM)	(Syn) (Synergy (Syn) was defined as an FICI≤0.5)	3.5e-05 (≈ 8.87e-05 µM)	synergy of the amide compound with DHA (in words) (MRSA USA300; MIC after adding DHA is less than ¼ of its original MIC, 8 mg/L DHA): synergistic antibacterial activity with DHA; combination effect (MRSA ATCC33591; +8 mg/L DHA): | (Syn) (Synergy (Syn) was defined as an FICI≤0.5); MIC (MRSA ATCC33591; +8 mg/L DHA): 6.1e-05 µg/mL (≈ 0.000155 µM); combination effect (MRSA ATCC33592; +8 mg/L DHA): (Syn) (Synergy (Syn) was defined as an FICI≤0.5); MIC (MRSA ATCC33592; +8 mg/L DHA): 0.00098 µg/mL (≈ 0.00248 µM); combination effect (MRSA ATCC43300; +8 mg/L DHA): (Syn) (Synergy (Syn) was defined as an FICI≤0.5); MIC (MRSA ATCC43300; +8 mg/L DHA): 0.00098 µg/mL (≈ 0.00248 µM); combination effect (MRSA ATCC49476; +8 mg/L DHA): | (Syn) (Synergy (Syn) was defined as an FICI≤0.5); MIC (MRSA ATCC49476; +8 mg/L DHA): 1.5e-05 µg/mL (≈ 3.8e-05 µM); combination effect (MRSA SCCmec VT; +8 mg/L DHA): (Syn) (Synergy (Syn) was defined as an FICI≤0.5); MIC (MRSA SCCmec VT; +8 mg/L DHA): 0.00098 µg/mL (≈ 0.00248 µM); combination effect (VRSA SJC1200; +8 mg/L DHA): (Syn) (Synergy (Syn) was defined as an FICI≤0.5); MIC (VRSA SJC1200; +8 mg/L DHA): 0.00012 µg/mL (≈ 0.000304 µM); combination effect (S. aureus DAP-NS; +8 mg/L DHA): (Syn) (Synergy (Syn) was defined as an FICI≤0.5); MIC (S. aureus DAP-NS; +8 mg/L DHA): 0.0156 µg/mL (≈ 0.0395 µM)
CNC(=O)c1cc(Oc2ccc(NC(=O)Nc3ccc(Cl)c(C(F)(F)F)c3)cc2)ccn1 [Sorafenib]	64 (≈ 138 µM)	4 (≈ 8.61 µM)	> 64	> 64	> 64	> 64	> 64	> 64	32 (≈ 68.8 µM)	1	0.5	0.5	(Syn) (Synergy (Syn) was defined as an FICI≤0.5)	> 64	> 64	>64	(Syn) (Synergy (Syn) was defined as an FICI≤0.5)	0.5 (≈ 1.08 µM)	(Syn) (Synergy (Syn) was defined as an FICI≤0.5)	0.5 (≈ 1.08 µM)	combination effect (MRSA ATCC33591; +8 mg/L DHA): (Syn) (Synergy (Syn) was defined as an FICI≤0.5); MIC (MRSA ATCC33591; +8 mg/L DHA): 0.5 µg/mL (≈ 1.08 µM); combination effect (MRSA ATCC33592; +8 mg/L DHA): (Syn) (Synergy (Syn) was defined as an FICI≤0.5); MIC (MRSA ATCC33592; +8 mg/L DHA): 0.5 µg/mL (≈ 1.08 µM); combination effect (MRSA ATCC43300; +8 mg/L DHA): (Syn) (Synergy (Syn) was defined as an FICI≤0.5); MIC (MRSA ATCC43300; +8 mg/L DHA): 0.5 µg/mL (≈ 1.08 µM); combination effect (MRSA ATCC49476; +8 mg/L DHA): (Syn) (Synergy (Syn) was defined as an FICI≤0.5); MIC (MRSA ATCC49476; +8 mg/L DHA): 0.5 µg/mL (≈ 1.08 µM); combination effect (MRSA SCCmec VT; +8 mg/L DHA): (Syn) (Synergy (Syn) was defined as an FICI≤0.5); MIC (MRSA SCCmec VT; +8 mg/L DHA): 0.5 µg/mL (≈ 1.08 µM); combination effect (VRSA SJC1200; +8 mg/L DHA): (Syn) (Synergy (Syn) was defined as an FICI≤0.5); MIC (VRSA SJC1200; +8 mg/L DHA): 0.5 µg/mL (≈ 1.08 µM); combination effect (S. aureus DAP-NS; +8 mg/L DHA): (Syn) (Synergy (Syn) was defined as an FICI≤0.5); MIC (S. aureus DAP-NS; +8 mg/L DHA): 0.5 µg/mL (≈ 1.08 µM)
CN[C@H](CC(C)C)C(=O)N[C@H]1C(=O)N[C@@H](CC(N)=O)C(=O)N[C@H]2C(=O)N[C@H]3C(=O)N[C@H](C(=O)N[C@H](C(=O)O)c4cc(O)cc(O)c4-c4cc3ccc4O)[C@H](O)c3ccc(c(Cl)c3)Oc3cc2cc(c3O[C@@H]2O[C@H](CO)[C@@H](O)[C@H](O)[C@H]2O[C@H]2C[C@](C)(N)[C@H](O)[C@H](C)O2)Oc2ccc(cc2Cl)[C@H]1O [vancomycin, reference compound]																					killing of persister cells (in words) [2]: resistant to the killing activity; killing of persister cells (in words) [3]: resistant to the killing activity
